This note sets out measurements from patent publication US7053178B2, “Synthetic peptides and kits for diagnosis of anti-phospholipid syndrome” (Yeda Research Development Co., LTD, priority 1998, dated 2006).

Assay [1] relates to sera of mice immunized with β2GPI. Kind of assay: ELISA binding of sera of β2GPI-immunized mice to peptides. On the set-up: species or system BALB/c mice. To be noted: biotinylated peptide monomers on streptavidin plates, anti-mouse IgG. The procedure: Sera of immunized mice were screened for the presence of mouse antibodies to peptide A, B and C, by ELISA, with streptavidin-coated plates followed by incubation with biotinylated peptide A, B, and C. Blocked plates (3% gelatin) were exposed to different dilutions of the sera. The binding was probed by anti-mouse IgG alkaline phosphatase.
BALB/c mice were immunized (day 0) in the hindfootpads with 10 μg β2GPI in Complete Freund's Adjuvant (CFA), Three weeks after, the mice received a booster injection of β2GPI in PBS. Sera of the mice (anti-β2GPI) were used to screen peptides for the presence of B cell epitopes, as follows: 96-well ELISA plates were coated with streptavidin overnight at 4° C., followed by incubation with biotinylated peptide monomers A, B, C, or D, β2GPI or BSA in PBS (100 μM) for 2 hours at room temperature. The ELISA plates were blocked with 3% gelatin, and the mouse sera were added thereto at different dilutions. Binding was probed with goat anti-mouse IgG alkaline phosphatase.

For assay [2], the system named is sera of SLE patients. In words: ELISA binding of SLE patient sera to biotinylated peptides. On the set-up: species or system human. Particulars: SLE patients (N = 72), sera 1:50. The procedure: (§1) Binding of sera from patients with primary APS or secondary to SLE to the studied peptides was performed by ELISA. 96-well ELISA plates were coated with streptavidin, blocked with gelatin, incubated with biotinylated peptides (A,B,C,D) and blocked with gelatin. Sera of patients with APS or SLE were added at dilution of 1:50 and the percent of binding was probed with anti-human IgM or IgG conjugated to alkaline phosphatase. Half plate was coated with streptavidin without addition of peptide (for non-specific binding).
(ELISA stands for enzyme-linked immunosorbent assay.)

Assay [3] has as its system sera of normal donors. Kind of assay: ELISA binding of normal donor sera to biotinylated peptides. More on the design: species or system human. Particulars: Normal donors (N = 100). The procedure:
as §1

Assay [4] deals with sera of APS patients. Kind of assay: ELISA binding of APS patient sera to biotinylated peptides. More on the design: species or system human. To be noted: APS patients (N = 43), sera 1:50. The procedure: ELISA streptavidin-coated plates were incubated with biotinylated A, B or C, control peptide D or cocktail of peptides A+B+C. Following blocking with 5% bovine sera, the patient sera were added at dilution of 1:50. The bound antibodies were detected by administration of anti-human IgG or IgM alkaline phosphatase and appropriate substrate.
as §1

The subject of assay [5] is anti-β2GPI ILA-1 mAb. Kind of assay: Competition ELISA: inhibition of ILA-1 mAb binding to β2GPI. On the set-up: species or system human. To be noted: 10 μM peptide concentration. The procedure: FIGS. 1A–1C are graphs showing inhibition of the anti-β2GPI ILA-1, ILA-3 and G-3 mAbs binding to β2GPI by competition assays using increasing concentrations of the inhibitory monomer peptides A, B and C, respectively, and of unrelated peptide D as control. The percent of inhibition was calculated as follows: % inhibition=O.D control−O.D with inhibitor/O.D control×100. Each point represents mean±SD of three different experiments.
(e) Inhibition of anti-β2GPI mAb binding to β2GPI by the inhibitory peptides. For competition ELISA tests, the anti-β2GPI mAbs (10 μg/ml) were preincubated (overnight at 4° C.) with varying concentrations of the peptides. The competition reaction was then transferred to β2GPI-coated γ-irradiated ELISA plates (Nunc), and the assay continued as described above. The percentage of inhibition was calculated as follows: % inhibition=O.D control −O.D with inhibitor/O.D control×100.
(2a) The specificity of interaction of the mAbs with the corresponding synthetic peptides A, B, C and control peptide D as monomers, was assessed by inhibition experiments as described in Materials and Methods, sections (e) and (f).

Assay [6] concerns affinity purified anti-β2GPI IgM and IgG from APS patients. Kind of assay: Competition ELISA: specificity of binding of patient anti-β2GPI IgM and IgG to peptides. On the set-up: species or system human. To be noted: competition with specific peptide versus cocktail of the other peptides. The procedure:
FIGS. 6A–6C show specificity of binding of affinity purified anti-β2GPI IgM and IgG antibodies from APS patients to the inhibitory monomer peptides A, B and C by ELISA, following preincubation of the tested affinity purified immuno-globulin with or without the peptide or the β2GPI molecule, in fluid phase. FIG. 6A: Affinity purified anti-β2GPI IgM and IgG that recognize peptide A were tested for binding to peptide A following preincubation of the purified antibodies with peptide A, cocktail of peptides B+C+D or β2GPI. Each point represents one patient. FIG. 6B: Affinity purified anti-β2GPI IgM and IgG that recognize peptide B were tested for binding to peptide B following preincubation with peptide B, cocktail of peptides A+C+D or β2GPI. Each point represents one patient. FIG. 6C: Affinity purified anti-β2GPI IgM and IgG that recognize peptide C were tested for binding to peptide C following preincubation with peptide C, cocktail of peptides A+B+D or β2GPI. Each point represents one patient.
The specificity of the recognition of the studied anti-β2GPI epitopes A, B, C by anti-β2GPI Abs from APS patients was confirmed by competition assays in which specificity of binding of anti-β2GPI IgM and IgG from patients with APS to the inhibitory peptides was examined. Anti-β2GPI IgG and IgM affinity purified from APS patients (affinity purification of the antibodies was carried out by incubation of cardiolipin lyposomes with patients' sera overnight at 4° C. with rotation following sedimentation of the complexes (30000 rpm), elution of the bound Abs by KI 1M, extraction from the lyposomes by chloroform, and separation of the total anti-β2GPI IgM, IgG Abs into the different isotypes employing either anti-human-IgM-Sepharose or anti-human-IgG-Sepharose (Pharmacia)) were preincubated with β2GPI (triangles), specific peptide monomer (circles) or a cocktail of the other peptides as monomers (squares), and tested for their binding to the specific biotinylated peptide-coated ELISA plates.

The subject of assay [7] is affinity purified anti-β2GPI Abs from APS patients. In words: Fractionation of affinity purified anti-β2GPI Abs on peptide columns. Format: binding, human.

Where no end group is shown, it is not given here.

For CATLRVYKGG [Peptide C], the “reaction with antibodies from mice immunized with β2GPI” value (from here on “reaction with antibodies”) in assay [1] is “reacted specifically”. The “Percent of sera recognizing the peptide, IgG” value (shortened to “Percent … IgG”) is 2.8% in assay [2], 1% in assay [3] and 16.3% in assay [4]. In addition, the “Percent of sera recognizing the peptide, IgM” value (“Percent … IgM” for short) worked out at 14% in assay [2], 0% in assay [3] and 27.9% in assay [4]. For the same sequence, in assay [5], the “inhibition of ILA-1 mAb binding to β2GPI” value is recorded as 11%. Moreover, the “specificity of recognition of the peptide by anti-β2GPI IgM and IgG from APS patients” value (“specificity” below) in assay [6] was “recognized specifically”. The “Fraction of anti-β2GPI Abs (in percentage) recognizing the peptide” value in assay [7] (APS patient no. 1) was determined as 0.4 percentage; in assay [7] (APS patient no. 2), 3 percentage; in assay [7] (APS patient no. 3), 39 percentage; in assay [7] (APS patient no. 4), 22 percentage; in assay [7] (APS patient no. 5), 1.8 percentage; in assay [7] (APS patient no. 6), 23 percentage. In addition, the “Fraction of anti-β2GPI Abs (in percentage) recognizing the peptide” value in assay [7] (APS patient no. 7) is on record as 5 percentage; in assay [7] (APS patient no. 8), 4.2 percentage; in assay [7] (APS patient no. 9), 0.5 percentage; in assay [7] (APS patient no. 10), 16.4 percentage.
On to KDKATFGTHDG [Peptide B], for which the “reaction with antibodies” value in assay [1] is on record as “reacted specifically”. For the same sequence, the “Percent … IgG” value in assay [2] turned out to be 11%; in assay [3] it was 0%; in assay [4] it was 20.9%. Moreover, the “Percent … IgM” value in assay [2] came out at 12.5%; in assay [3] it was 1%; in assay [4], 25.6%. The “inhibition of ILA-1 mAb binding to β2GPI” value in assay [5] is given as 10%. Moreover, the “specificity” value in assay [6] is listed as “bind specifically”. Also, the “Fraction of anti-β2GPI Abs (in percentage) recognizing the peptide” value in assay [7] (APS patient no. 1) was found to be 37 percentage; in assay [7] (APS patient no. 2) it was 15 percentage; in assay [7] (APS patient no. 3), 0.5 percentage; in assay [7] (APS patient no. 4) it was 43 percentage; in assay [7] (APS patient no. 5), 29 percentage; in assay [7] (APS patient no. 6) it was 14 percentage. The “Fraction of anti-β2GPI Abs (in percentage) recognizing the peptide” value turned out to be 18 percentage in assay [7] (APS patient no. 7), 33 percentage in assay [7] (APS patient no. 8), 1.3 percentage in assay [7] (APS patient no. 9) and 7.9 percentage in assay [7] (APS patient no. 10).
Turning to NTLKTPRVGG [Peptide A], the “reaction with antibodies” value in assay [1] is reported as “reacted specifically”. Further, the “Percent … IgG” value is recorded as 5.5% in assay [2], 0% in assay [3] and 7% in assay [4]. In addition, the “Percent … IgM” value amounted to 11% in assay [2], 2% in assay [3], 20.9% in assay [4] and 21% in assay [4] (listed as peptide A). Moreover, the “inhibition of ILA-1 mAb binding to β2GPI” value in assay [5] was found to be 97%. For the same sequence, the “specificity” value in assay [6] was “recognized specifically”. The “Fraction of anti-β2GPI Abs (in percentage) recognizing the peptide” value in assay [7] (APS patient no. 1) came to 23 percentage; in assay [7] (APS patient no. 2), 0.7 percentage; in assay [7] (APS patient no. 3), 1.4 percentage; in assay [7] (APS patient no. 4), 29 percentage; in assay [7] (APS patient no. 5), 0.9 percentage; in assay [7] (APS patient no. 6) it was 29 percentage. In addition, the “Fraction of anti-β2GPI Abs (in percentage) recognizing the peptide” value in assay [7] (APS patient no. 7) came to 37 percentage; in assay [7] (APS patient no. 8), 2.8 percentage; in assay [7] (APS patient no. 9), 12 percentage; in assay [7] (APS patient no. 10) it was 0.6 percentage.
